Data set [1] in a line: Stability of TMR-labeled peptides in mouse plasma. The settings on record: 37°C; for susceptibility to mouse plasma proteases (in words): incubated with fresh mouse plasma, HPLC. It counts as in vitro ADME. As for the experimental part: Mouse blood was collected in serum-separation tubes containing heparin sodium and immediately centrifuged at 10,000 rpm for 10 min. Fresh mouse plasma was then removed and stored for further analysis. Then, 200 µg of TMR-RIF7 and TMR-IF7 was dissolved in 10 µl DMSO, added to 1 ml of the fresh plasma, and incubated at 37°C. A 50 µl aliquot was withdrawn from the incubation mixture at the time indicated, added to 450 µl acetonitrile: water (50∶50) containing 0.1% TFA, centrifuged at 5,000 rpm for 10 min to remove Insoluble material, and then the supernatant was analyzed by HPLC as described previously in §2.2. Elution was monitored (excitation λ = 543 nm; emission λ = 570 nm). The relative amount of TMR-RIF7 and TMR-IF7 that remained in the mouse plasma […].

For another data set, the system named is A549 cells. Kind of data set: Cell binding after pre-incubation in complete medium (10% FBS). The format is cell-based, human. The settings on record: 10 min; for fluorescent intensity after incubation of peptide with complete medium prior to cells: complete medium containing 10% FBS, 37°C, then A549 cells, IF7 p<0.001, RIF7 p<0.01. As for the experimental part: A549 cells were seeded (5×10^3 cells/well) in 96-well plates (Corning Coaster, Tokyo, Japan) and incubated for 12 h. Cells were incubated with serum free medium (special Dulbecco's modified Eagle medium supplemented with 100 U/mL penicillin, […] streptomycin) containing TMR-RIF7, TMR-IF7, or TMR-RQ7 (TMR conjugated to reverse IF7: sequence RQWLLFI, composed of L-amino acids) at the concentration of 10 µg/ml. In addition, to verify the stability of modified peptides, TMR-IF7 and TMR-RIF7 were incubated with complete medium (special Dulbecco's modified Eagle medium supplemented with 10% heat-inactivated FBS, 100 U/mL penicillin, […] streptomycin) for 10 min at 37°C in advance of serum free medium. The solution was removed and cells were washed three times with ice-cold PBS (pH 7.4) and then visualized under a fluorescent microscope (Leica DMI 4000B, Germany).
(§1) For direct competition studies, non-labeled IF7 or RIF7 (10 µg/ml) was added to each well and incubated for 30 min. TMR-IF7 or TMR-RIF7 (10 µg/ml) were then added and incubated at 37°C for 30 min. The solution was removed and the cells were washed three times with ice-cold PBS (pH 7.4) and then visualized under a fluorescent microscope (Leica DMI 4000B, Germany). The fluorescent signal intensity of each well was quantified using an F-7000 FL spectrophotometer.

Data set [2] concerns the target T1, Anxa1 (Homo sapiens, UniProt P04083).
T1 construct: endogenous in cells; host or cells: A549 cells
T1 sequence (P04083 1-346): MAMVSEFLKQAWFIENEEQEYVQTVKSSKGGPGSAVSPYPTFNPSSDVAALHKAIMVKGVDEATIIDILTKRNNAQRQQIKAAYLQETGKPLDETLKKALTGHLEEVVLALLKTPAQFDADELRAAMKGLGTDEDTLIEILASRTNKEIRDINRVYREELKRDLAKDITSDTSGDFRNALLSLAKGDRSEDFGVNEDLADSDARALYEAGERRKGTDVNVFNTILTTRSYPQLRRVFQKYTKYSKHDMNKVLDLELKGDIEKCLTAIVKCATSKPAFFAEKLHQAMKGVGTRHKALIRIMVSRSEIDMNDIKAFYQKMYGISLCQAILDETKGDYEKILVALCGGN
In words: Inhibition assay of cell binding with anti-Anxa1 antibody. The format is cell-based. The settings on record: A549 cells; for influence of normal rabbit IgG on binding capacity to cells: normal rabbit IgG 4 µg per well 30 min prior to peptide. As for the experimental part: For inhibition assays, anti-Anxa1 antibody or control normal rabbit IgG (4 µg each) was added to each well and incubated for 30 min. TMR-IF7 or TMR-RIF7 (10 µg/ml) were then added and incubated at 37°C for 30 min. The solution was removed and cells were washed three times with ice-cold PBS (pH 7.4) and then visualized under a fluorescent microscope (Leica DMI 4000B, Germany).
as §1

In data set [3] the target is T2, Anxa1 (Mus musculus, UniProt P10107).
T2 construct: IF7 or RIF7 targets tumors through Anxa1 expressed on endothelial cell surfaces; from tissue; host or cells: pulmonary tumour vasculature of tumour-bearing mice (in vivo)
T2 sequence (P10107 1-346): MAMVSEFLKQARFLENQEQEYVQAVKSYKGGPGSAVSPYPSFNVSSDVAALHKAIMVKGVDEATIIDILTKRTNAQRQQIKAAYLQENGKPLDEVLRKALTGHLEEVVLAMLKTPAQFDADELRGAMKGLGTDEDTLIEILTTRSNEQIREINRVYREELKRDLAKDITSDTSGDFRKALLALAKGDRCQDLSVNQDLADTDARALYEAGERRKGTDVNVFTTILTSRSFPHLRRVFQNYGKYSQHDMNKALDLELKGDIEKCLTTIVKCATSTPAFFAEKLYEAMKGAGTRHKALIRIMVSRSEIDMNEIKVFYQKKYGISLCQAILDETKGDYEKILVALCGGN
In words: In vivo inhibition assay with anti-Anxa1 antibody in pulmonary tumor-bearing mice. The following applies: 20 µg rabbit IgG 15 min prior to peptide. As for the experimental part:
(§2) Ex vivo real-time fluorescence imaging analysis was used to evaluate the tumor targeting activity of TMR-RIF7. One week after inoculation, TMR-IF7 or TMR-RIF7 (200 µl, 0.5 mg/ml in 5% glucose solution) was injected through the tail vein of mice bearing pulmonary tumors. The mice were then sacrificed and perfused intracardially with normal saline to compare tissue and tumor distribution of TMR-RIF7. Tumor-bearing lungs and other major organs, including hearts, livers, spleens and kidneys were removed, washed with saline, and imaged using a Cambridge Research & Instrumentation (CRi) in vivo imaging system (CRi, MA, USA). When subcutaneous KBv tumors were grown to a palpable size (about 8–10 mm diameter), the same process was carried out to evaluate tissue and tumor distribution of TMR-RIF7 in subcutaneous tumor-bearing nude mice. Next, 20 µg of each rabbit anti-Anxa1 antibody (N-19) or rabbit IgG antibody was injected 15 min prior to TMR-IF7 or TMR-RIF7 injection for inhibition assays in pulmonary tumor-bearing mice. Then, resulting images (spectral cube, containing a spectrum at every pixel) were loaded into Maestro™ 2.10 software and analyzed.

Data set [4] can be described thus: Systemic distribution in dissected organs, ex vivo imaging. Details: species or system mouse. The following applies: for organ distribution of TMR-labeled peptide: major organs collected at 30 min and 4 h after i.v. injection. As for the experimental part:
as §2

A further data set deals with tumor. The following applies: mice; cited from earlier work. The source says:
Hatakeyama's laboratory used peptide-displaying phage technology to generate a carbohydrate mimetic peptide with the consensus sequence IFLLWQR, which was designated IF7 [14]. IF7 has a special affinity for the tumor vasculature and functions as an efficient anticancer drug delivery vehicle, slowing tumor growth. Experiments confirmed that IF7 specifically binds to a 15-kDa fragment of annexin1 (Anxa1). Anxa1 is a member of the large annexin family of cytosolic proteins with calcium-dependent associations with cell membranes.

A further data set has as its system lung melanoma (B16-F10). The format is in vivo, mouse. As for the experimental part: as §2, with “B16-F10 cells (7.5×10^5 cells suspended in 250 µl PBS) were injected intravenously into BALB/c mice to establish a pulmonary metastatic melanoma model. Specifically, KBv cells (5×10^6cells suspended in […] cell culture medium) were inoculated subcutaneously into the right hind legs of nude mice to produce a subcutaneous KBv xenograft model. Ex” for “Ex”

The target of data set [5] is T1, Anxa1. In words: Direct competition study with non-labeled peptide. It counts as cell-based. The following applies: A549 cells. As for the experimental part:
as §1

For data set [6], the system named is subcutaneous KBv xenografts. Kind of data set: Ex vivo fluorescence imaging, subcutaneous KBv xenograft model. It counts as in vivo. The settings on record: nude mice, both 30 min and 4 h after i.v. injection. As for the experimental part: as §2, with “B16-F10 cells (7.5×10^5 cells suspended in 250 µl PBS) were injected intravenously into BALB/c mice to establish a pulmonary metastatic melanoma model. Specifically, KBv cells (5×10^6cells suspended in […] cell culture medium) were inoculated subcutaneously into the right hind legs of nude mice to produce a subcutaneous KBv xenograft model. Ex” for “Ex”, “Next, 20 µg of each rabbit anti-Anxa1 antibody (N-19) or rabbit IgG antibody was injected 15 min prior to TMR-IF7 or TMR-RIF7 injection for inhibition assays in pulmonary tumor-bearing mice.” left out

The mark [7] stands for this setting: TMR-labeled peptide 10 µg/ml, 37°C, 30 min, F-7000 FL spectrophotometer, mean ± SD, n = 3.

For orientation: fraction remaining means the share of the starting amount still present when the sample was taken.

Where a SMILES comes first, the peptide text is derived from it. [ ]: non-standard residue; d: D form. The star is where a group is joined. 5TAMRA = CN(C)c1ccc2c(c1)Oc1cc(N(C)C)ccc1C21OC(=O)c2cc(C(=O)*)ccc21

As for `CC[C@H](C)[C@H](NC(=O)c1ccc2c(c1)C(=O)OC21c2ccc(N(C)C)cc2Oc2cc(N(C)C)ccc21)C(=O)N[C@@H](Cc1ccccc1)C(=O)N[C@@H](CC(C)C)C(=O)N[C@@H](CC(C)C)C(=O)N[C@@H](Cc1c[nH]c2ccccc12)C(=O)N[C@@H](CCC(N)=O)C(=O)N[C@@H](CCCNC(=N)N)C(=O)O` [TMR-IF7] (5TAMRA-IFLLWQR-OH), the metabolised at 0.5 h, 198 µg/mL in [1] (fresh heparinised mouse plasma, fresh heparin mouse plasma, 200 µg peptide in 10 µl DMSO per 1 ml plasma, within 30 min, HPLC with fluorescence detection (ex 543 nm, em 570 nm), mean of at least three experiments, read-out: peptide degraded in mouse plasma) is more than 80%. The “susceptibility to mouse plasma proteases (in words)” value in data set [1] was “rapidly degraded”.
In the case of `CC[C@@H](C)[C@@H](NC(=O)[C@@H](Cc1ccccc1)NC(=O)[C@@H](CC(C)C)NC(=O)[C@@H](CC(C)C)NC(=O)[C@@H](Cc1c[nH]c2ccccc12)NC(=O)[C@@H](CCC(N)=O)NC(=O)[C@@H](CCCNC(=N)N)NC(=O)c1ccc2c(c1)C(=O)OC21c2ccc(N(C)C)cc2Oc2cc(N(C)C)ccc21)C(=O)O` [TMR-RIF7] (5TAMRA-[dR][dQ][dW][dL][dL][dF][dI]-OH), the “resistance to protease in complete medium (qualitative imaging)” value in the data set with A549 cells (complete medium with 10% FBS, 37°C prior to incubation with A549 cells) was “more resistant to protease in complete medium than TMR-IF7”. The fraction remaining at 6 h, 198 µg/mL in data set [1] (fresh heparinised mouse plasma, fresh heparin mouse plasma, 200 µg peptide in 10 µl DMSO per 1 ml plasma, within 6 h, HPLC with fluorescence detection (ex 543 nm, em 570 nm), mean of at least three experiments, read-out: peptide remaining intact in mouse plasma) is approximately 70%. In addition, the “susceptibility to mouse plasma proteases (in words)” value in data set [1] is “did not change significantly”.
IFLLWQR [IF7, parent peptide]: the “fluorescent intensity after incubation of peptide with complete medium prior to cells” value with A549 cells is listed as “decreased significantly”. For the same compound, the “intensity of fluorescence, cells treated with peptide only” value at Anxa1 [2] (setting [7]) stood at 19.32±0.89. Besides, the “intensity of fluorescence, cells incubated with anti-Anxa1 antibody prior to peptide” value at Anxa1 [2] (anti-Anxa1 antibody 4 µg per well 30 min, then TMR-labeled peptide 10 µg/ml, 37°C, 30 min, mean ± SD, n = 3) was found to be 5.26±1.97. Moreover, the “influence of normal rabbit IgG on binding capacity to cells” value on Anxa1 [2] is “little influence”. Besides, the “effect of normal rabbit IgG injected prior to peptide” value on Anxa1 [3] is listed as “did not alter targeted distribution in the lung”. Further, the “organ distribution of TMR-labeled peptide” value in data set [4] was “distributed mainly in liver, kidney and tumor tissue”. Besides, in the data set with tumor, the “time for which the tumor signal remained high” value is on record as 40 min, the “time to detection in the tumor after injection” value was not above 1 min and the “time to plateau in the tumor” value is recorded as 9 min. The “mean fluorescent intensity in the lung tumor region” value in the data set on lung melanoma (B16-F10) (12 h post intravenous injection, mean ± SD, n = 3) was “hardly detectable”. For the same compound, on Anxa1 [5] (setting [7]), the “fluorescent intensity, cells treated with peptide only (competition assay)” value came out at 20.31±1.78. The “fluorescent intensity, cells pre-incubated with non-labeled competitor” value on Anxa1 [5] (non-labeled peptide 10 µg/ml 30 min, then TMR-labeled peptide 10 µg/ml, 37°C, 30 min, mean ± SD, n = 3) is on record as 4.26±1.96.
Take RQWLLFI [RIF7]: the “fluorescent intensity after incubation of peptide with complete medium prior to cells” value in the data set on A549 cells is reported as “decreased significantly”. The “binding to Anxa1 inhibited by anti-Anxa1 antibody” value on Anxa1 [2] (anti-Anxa1 antibody 4 µg per well 30 min prior to TMR-labeled peptide 10 µg/ml) is given as approximately 70%. Further, the “influence of normal rabbit IgG on binding capacity to cells” value at Anxa1 [2] is recorded as “little influence”. The “effect of normal rabbit IgG injected prior to peptide” value on Anxa1 [3] is given as “did not alter targeted distribution in the lung”. The “fluorescent signals in organs compared with the other peptide” value in data set [4] (30 min and 4 h after i.v. injection) is “stronger fluorescent signals at both time points”. The “organ distribution of TMR-labeled peptide” value in [4] is “distributed mainly in liver, kidney and tumor tissue”. Also, the “signal intensity in lung tumor relative to IF7” value in the data set with lung melanoma (B16-F10) (after 4 h, mean fluorescent intensities in lung tumor region, n = 3) is approximately 2.3 fold. For the same compound, in the data set with lung melanoma (B16-F10) (all survey points (30 min, 4, 8, 12 h)), the “fluorescent signal in lung melanoma compared with the IF7 group” value was “stronger fluorescent signal”. Besides, on Anxa1 [5] (non-labeled peptide 10 µg/ml 30 min prior to TMR-labeled peptide 10 µg/ml), the “binding to Anxa1 inhibited by non-labeled peptide” value was approximately 67%. The “fluorescent intensity in KBv tumors compared to IF7-treated mice” value in data set [6] is “greater fluorescent intensity”.
Take RQWLLFI [RQ7, control peptide]: the “signals in the lung” value in [4] (different time points after i.v. injection, control peptide) is “remained at background levels”.

Source of the values: paper PMC3846562, “Retro-Inverso Carbohydrate Mimetic Peptides with Annexin1-Binding Selectivity, Are Stable In Vivo, and Target Tumor Vasculature” (PLoS ONE, 2013).
